Data taken from US20250042886A1, “BIS(HETERO)ARYL THIOETHER OXADIAZINES AS FUNGICIDAL COMPOUNDS” (Bayer Aktiengesellschaft, priority 2021, published 2025).

Assays:
Pyricularia oryzae = test: microbe, parasite or virus in culture; assay type: cell-based; settings: 120 h, read-out: efficacy (inhibition of fungal growth), 20 ppm of active ingredient, liquid culture, 5 days incubation
Fusarium culmorum = Fusarium culmorum in vitro cell test; assay type: cell-based; settings: 120 h, 20 ppm of active ingredient, liquid culture, 5 days incubation, read-out: efficacy (inhibition of fungal growth)
Method in brief: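 Spores in liquid mineral-salts/saccharose medium exposed to compounds (DMSO ≤1% final) for 5 days. Mycelium growth measured spectrometrically, with inhibition derived from absorbance relative to fungicide-free control wells.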

Alternaria alternata = Alternaria alternata in vitro cell test; assay type: cell-based; settings: 120 h, 20 ppm of active ingredient, liquid culture, 5 days incubation, read-out: efficacy (inhibition of fungal growth)
Procedure: B-5. Alternaria alternata In Vitro Cell Test • Solvent: DMSO • Culture medium: 14.6 g anhydrous D-glucose (VWR), 7.1 g Mycological Peptone (Oxoid), 1.4 g granulated Yeast Extract (Merck), QSP 1 liter • Inoculum: spores suspension Fungicides were solubilized in DMSO and the solution used to prepare the required range of concentrations. […] A spore suspension of A. alternata was prepared and diluted to the desired spore density. Fungicides were evaluated for their ability to inhibit spore germination and mycelium growth in liquid culture assay. The compounds were added in the desired concentration to the culture medium with spores. After 5 days incubation, fungi-toxicity of compounds was determined by spectrometric measurement of mycelium growth. Inhibition of fungal growth was determined by comparing the absorbance values in wells containing the fungicides with the absorbance in control wells without fungicides.

Pyrenophora teres = Pyrenophora teres in vitro cell test; assay type: cell-based; settings: 144 h, 20 ppm of active ingredient, liquid culture, 6 days incubation, read-out: efficacy (inhibition of fungal growth)
Method in brief: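 Compounds in DMSO were added to P. teres spore suspensions in glucose/peptone/yeast-extract liquid medium, testing inhibition of spore germination and mycelium growth. After 6 days, mycelium growth was read by absorbance. Inhibition was calculated relative to fungicide-free control wells.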

[1] = Measurement of Log P values by HPLC on reversed phase columns (EEC directive 79/831 Annex V.A8); assay type: physicochemical; settings: Table 1, compounds of formula (I); method [a]: LC-UV, acidic range, 0.1% formic acid in water and acetonitrile
[2] = tested on: Colletotrichum lindemuthianum; test: Colletotrichum lindemuthianum in vitro cell test; assay type: cell-based; settings: 144 h, 20 ppm of active ingredient, liquid culture, 6 days incubation, read-out: efficacy (inhibition of fungal growth)
Method in brief: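 C. lindemuthianum spores in liquid glucose–peptone–yeast extract medium were exposed to compounds dissolved in DMSO. After 6 days, mycelial growth was measured by absorbance, and inhibition was calculated against compound-free control wells.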

Septoria tritici = Septoria tritici in vitro cell test; assay type: cell-based; settings: Zymoseptoria tritici, 168 h; 20 ppm of active ingredient; liquid culture, 7 days incubation; read-out: efficacy (inhibition of fungal growth)
Procedure: B-11. Septoria tritici In Vitro Cell Test • Solvent: DMSO • Culture medium: 1 g KH2PO4 (VWR), 1 g K2HPO4 (VWR), 0.5 g Urea (VWR), 3 g KNO3 (Prolabo), 10 g saccharose (VWR), 0.5 g MgSO4, 7H2O (Sigma), 0.07 g CaCl2, 2H2O (Prolabo), 0.2 mg MnSO4, H2O (Sigma), 0.6 mg CuSO4, 5H2O (Sigma), 7.9 mg ZnSO4, 7H2O (Sigma), 0.1 mg H3BO3 (Merck), 0.14 mg NaMoO4, 2H2O (Sigma), 2 mg thiamine (Sigma), 0.1 mg biotine (VWR), 4 mg FeSO4, 7H2O (Sigma), QSP 1 liter • Inoculum: spore suspension Fungicides were solubilized in DMSO and the solution used to prepare the required range of concentrations. […] A spore suspension of S. tritici was prepared and diluted to the desired spore density. Fungicides were evaluated for their ability to inhibit spore germination and mycelium growth in liquid culture assay. The compounds were added in the desired concentration to the culture medium with spores. […] Inhibition of fungal growth was determined by comparing the absorbance values in wells containing the fungicides with the absorbance in control wells without fungicides.

Botrytis cinerea [3] = test: Botrytis cinerea in vitro cell test; assay type: cell-based; settings: 144 h, 20 ppm of active ingredient, liquid culture, 6 days incubation, read-out: efficacy (inhibition of fungal growth)
Method in brief: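 Compounds from DMSO stocks added at a range of concentrations to a defined mineral-salt/sucrose liquid medium inoculated with B. cinerea spores. After 6 days' incubation, mycelium growth was read by absorbance; inhibition of germination and growth was calculated against fungicide-free control wells.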

Botrytis cinerea [4] = test: In vivo preventive test on Botrytis cinerea (grey mould); settings: 500 ppm of active ingredient, sprayed on young gherkin or cabbage plants 24 h before inoculation, evaluated 4 to 5 days after inoculation, read-out: efficacy
Method in brief: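 Compounds in DMSO/acetone/Tween 80 were diluted in water and sprayed onto young gherkin or cabbage plants; controls got solvent only. After 24 h, leaves were sprayed with an aqueous Botrytis cinerea spore suspension.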

[5] = tested on: Colletotrichum lindemuthianum; test: In vivo preventive test on Colletotrichum lindemuthianum (leaf spot on bean); settings: 168 h, 500 ppm of active ingredient, sprayed on young bean plants 24 h before inoculation, evaluated 7 days after inoculation, read-out: efficacy
Procedure: (§1) B-4. […] The active ingredients were made soluble and homogenized in a mixture of Dimethyl sulfoxide/Acetone//Tween® 80 and then diluted in water to the desired concentration. The young plants of bean were treated by spraying the active ingredient prepared as described above. Control plants were treated only with an aqueous solution of Acetone/Dimethyl sulfoxide/Tween® 80. After 24 hours, the plants were contaminated by spraying the leaves with an aqueous suspension of Colletotrichum lindemuthianum spores.

Alternaria brassicae = test: In vivo preventive test on Alternaria brassicae (leaf spot on radish or cabbage); settings: 500 ppm of active ingredient, sprayed on young radish or cabbage plants 24 h before inoculation, evaluated 3 to 4 days after inoculation, read-out: efficacy
Procedure: as §1, with “B-1.” for “B-4.”, “radish or cabbage” for “bean”, “Alternaria brassicae” for “Colletotrichum lindemuthianum”

Clc1cccc(Sc2cnc(Cl)cc2C2=NOC[C@@H](Cc3ccc(Cl)cc3Cl)N2)c1 (racemic) [Compound I-008]
inhibition at 20 ppm (Pyricularia oryzae): 90 to 100%
inhibition at 20 ppm (Fusarium culmorum): 90 to 100%
inhibition at 20 ppm (Alternaria alternata): 80 to 89%
inhibition at 20 ppm (Pyrenophora teres): 90 to 100%
chromatographic logP [1]: 4.9
inhibition at 20 ppm [2]: 90 to 100%
inhibition at 20 ppm (Septoria tritici): 90 to 100%
inhibition at 20 ppm (Botrytis cinerea [3]): 90 to 100%

COc1cccc(Sc2cnc(C)nc2C2=NOC[C@H](Cc3ccc(C)cc3C)N2)c1 (racemic) [Compound I-009]
pest or weed control at 500 ppm (Botrytis cinerea [4]): 80 to 89%
pest or weed control at 500 ppm [5]: 70 to 79%
chromatographic logP [1]: 4.67
inhibition at 20 ppm [2]: 80 to 89%
inhibition at 20 ppm (Septoria tritici): 70 to 79%
pest or weed control at 500 ppm (Alternaria brassicae): 80 to 89%
inhibition at 20 ppm (Botrytis cinerea [3]): 90 to 100%

Cc1cccc(Sc2cnc(Cl)cc2C2=NOC[C@@H](Cc3ccc(Cl)cc3Cl)N2)c1 (racemic) [Compound I-011]
pest or weed control at 500 ppm (Botrytis cinerea [4]): 90 to 100%
inhibition at 20 ppm (Pyricularia oryzae): 90 to 100%
inhibition at 20 ppm (Fusarium culmorum): 90 to 100%
inhibition at 20 ppm (Alternaria alternata): 70 to 79%
inhibition at 20 ppm (Pyrenophora teres): 90 to 100%
chromatographic logP [1]: 4.86
inhibition at 20 ppm [2]: 90 to 100%
inhibition at 20 ppm (Septoria tritici): 90 to 100%
inhibition at 20 ppm (Botrytis cinerea [3]): 90 to 100%

COc1cccc(Sc2cnc3ccccc3c2C2=NOC[C@H](Cc3ccc(C)cc3C)N2)c1 (racemic) [Compound I-012]
inhibition at 20 ppm (Pyrenophora teres): 90 to 100%
chromatographic logP [1]: 4.06
inhibition at 20 ppm [2]: 90 to 100%
inhibition at 20 ppm (Septoria tritici): 70 to 79%
inhibition at 20 ppm (Botrytis cinerea [3]): 90 to 100%

FC(F)(F)c1cccc(Sc2nnc(Cl)cc2C2=NOC[C@H](Cc3ccc(Cl)cc3Cl)N2)c1 (racemic) [Compound I-016]
inhibition at 20 ppm (Pyricularia oryzae): 80 to 89%
inhibition at 20 ppm (Pyrenophora teres): 90 to 100%
chromatographic logP [1]: 4.86
inhibition at 20 ppm [2]: 90 to 100%
inhibition at 20 ppm (Septoria tritici): 70 to 79%
inhibition at 20 ppm (Botrytis cinerea [3]): 90 to 100%

Cc1ccc(C[C@@H]2CON=C(c3cc(Cl)nnc3S(=O)(=O)c3ccc(C(F)(F)F)cc3)N2)c(C)c1 (racemic) [Compound I-018]
inhibition at 20 ppm (Pyricularia oryzae): 90 to 100%
chromatographic logP [1]: 4.28
inhibition at 20 ppm [2]: 80 to 89%
inhibition at 20 ppm (Septoria tritici): 90 to 100%

Cc1ccc(C[C@H]2CON=C(c3c(Sc4cccc(Cl)c4)cnc4ccccc34)N2)c(C)c1 (racemic) [Compound I-024]
inhibition at 20 ppm (Pyricularia oryzae): 90 to 100%
inhibition at 20 ppm (Fusarium culmorum): 90 to 100%
inhibition at 20 ppm (Alternaria alternata): 90 to 100%
inhibition at 20 ppm (Pyrenophora teres): 90 to 100%
chromatographic logP [1]: 4.46
inhibition at 20 ppm [2]: 90 to 100%
inhibition at 20 ppm (Septoria tritici): 90 to 100%
inhibition at 20 ppm (Botrytis cinerea [3]): 90 to 100%
